Experimental findings from the Biogen ADME set (Fang et al. 2023) are described below.

≈ marks a conversion by molar mass, not a printed value.

The conditions of this data set: for aqueous solubility: pH 6.8.

By aqueous solubility is commonly meant how much of the substance goes into solution per volume. The low end stands for little dissolved substance, the high end for much dissolved substance. For `C#CCNC(=O)Cc1coc2cc(OC)ccc12`, the MDR1-MDCK efflux ratio amounted to 0.646; the intrinsic clearance, human liver microsomes came to 15.4 mL/min/kg; the intrinsic clearance, rat liver microsomes turned out to be 183 mL/min/kg; the aqueous solubility was 56.4 µg/mL (≈ 232 µM).

Regarding `CCc1cc(=O)[nH]c(SCCCCC2CCOCC2)n1`, the MDR1-MDCK efflux ratio was 1.12; the intrinsic clearance, human liver microsomes was 34.2 mL/min/kg; the intrinsic clearance, rat liver microsomes was determined as 287 mL/min/kg.

Turning to `Clc1cnc(Oc2ccc3cn[nH]c3c2)nc1`, the intrinsic clearance, human liver microsomes was 12.9 mL/min/kg and the intrinsic clearance, rat liver microsomes amounted to 27.5 mL/min/kg.

In the case of `CNCc1cc(N(C)C)nc(C2CCCN2C(=O)C2CN(Cc3ccc(Cl)cc3)C2)n1` (stereo unspecified), the MDR1-MDCK efflux ratio was determined as 46.8; the intrinsic clearance, human liver microsomes stood at 8.66 mL/min/kg; the intrinsic clearance, rat liver microsomes was 28.4 mL/min/kg.

For the compound `Cn1cc(-c2nc(C(=O)Nc3ccc4c(c3)OCCCO4)cs2)cn1`, the intrinsic clearance, human liver microsomes came to 8.94 mL/min/kg; the intrinsic clearance, rat liver microsomes came out at 226 mL/min/kg; the aqueous solubility was 34 µg/mL (≈ 95.4 µM).

On to `Cc1cc(Oc2cnccn2)ccc1N`, for which the intrinsic clearance, human liver microsomes was ≤ 4.74 mL/min/kg; the intrinsic clearance, rat liver microsomes stood at 31.2 mL/min/kg; the aqueous solubility worked out at 21.9 µg/mL (≈ 109 µM).

As for `COc1cc(Nc2cc(-c3cccc(C#N)c3)ccn2)ccc1N1CCN(C)CC1`, the MDR1-MDCK efflux ratio was found to be 3.85; the intrinsic clearance, human liver microsomes was determined as 5.88 mL/min/kg; the intrinsic clearance, rat liver microsomes worked out at 198 mL/min/kg; the aqueous solubility was 45.8 µg/mL (≈ 115 µM).

On to `O=C(Cc1ccc(F)cc1)NCCn1cccnc1=O`, for which the MDR1-MDCK efflux ratio came to 9.23; the intrinsic clearance, human liver microsomes was ≤ 4.74 mL/min/kg; the intrinsic clearance, rat liver microsomes stood at 22.7 mL/min/kg; the aqueous solubility came out at 63.3 µg/mL (≈ 230 µM).

As to `Cc1cc(NC(=O)c2cccs2)no1`, the MDR1-MDCK efflux ratio was 0.617; the intrinsic clearance, human liver microsomes is 39.6 mL/min/kg; the intrinsic clearance, rat liver microsomes amounted to 793 mL/min/kg; the aqueous solubility stood at 31.6 µg/mL (≈ 152 µM).

For the compound `Cc1noc(CCNc2cccc(F)c2C#N)n1`, the intrinsic clearance, human liver microsomes came to 40.7 mL/min/kg and the intrinsic clearance, rat liver microsomes was 266 mL/min/kg.

In the case of `CC(C)OC(=O)N1CCC(Oc2ncnc3c2cnn3-c2ccc(S(C)(=O)=O)cc2F)CC1`, the MDR1-MDCK efflux ratio came out at 1.61.

Take `O=C(O)c1cccc(N2CCC(Oc3ccc(Cl)cc3)CC2)n1`: the MDR1-MDCK efflux ratio amounted to 0.711; the intrinsic clearance, human liver microsomes stood at 4.88 mL/min/kg; the intrinsic clearance, rat liver microsomes was ≤ 10.7 mL/min/kg; the aqueous solubility worked out at 45 µg/mL (≈ 135 µM).

`COCc1ccccc1CNc1ccc2nnc(-c3ccccc3)n2n1`: the MDR1-MDCK efflux ratio worked out at 9.33; the intrinsic clearance, human liver microsomes was found to be 101 mL/min/kg; the intrinsic clearance, rat liver microsomes came to 417 mL/min/kg; the aqueous solubility amounted to 2.8 µg/mL (≈ 8.11 µM).

As for `CCc1cc(-c2ccc(OC)c3nc(C)ccc23)nc(N2CCOCC2)n1`, the MDR1-MDCK efflux ratio came out at 1.12; the intrinsic clearance, human liver microsomes came to 6.38 mL/min/kg; the intrinsic clearance, rat liver microsomes was 105 mL/min/kg.

Regarding `COc1ccc(NC(=O)c2snnc2C)c(OC)c1`, the MDR1-MDCK efflux ratio is 0.521; the intrinsic clearance, human liver microsomes amounted to 34.2 mL/min/kg; the intrinsic clearance, rat liver microsomes came to 182 mL/min/kg; the aqueous solubility turned out to be 3.67 µg/mL (≈ 13.1 µM).

For `Cc1noc(-c2ccccc2C(=O)O)n1`, the intrinsic clearance, human liver microsomes was ≤ 4.74 mL/min/kg; the intrinsic clearance, rat liver microsomes was ≤ 10.7 mL/min/kg; the aqueous solubility stood at 35.3 µg/mL (≈ 173 µM).

In the case of `O=C(c1cc(-c2ccc(F)cc2)on1)N1CC[C@H](Oc2ccccc2F)[C@@H](O)CC1`, the MDR1-MDCK efflux ratio turned out to be 0.861; the intrinsic clearance, human liver microsomes was determined as 48.5 mL/min/kg; the intrinsic clearance, rat liver microsomes came out at 600 mL/min/kg.

For the compound `CCCS(=O)(=O)c1nc(NC2CC2)cc(-c2ccc3c(ccn3C3CC(C)(C)NC(C)(C)C3)c2)n1`, the MDR1-MDCK efflux ratio came out at 34.9; the intrinsic clearance, human liver microsomes worked out at 51.1 mL/min/kg; the intrinsic clearance, rat liver microsomes came to 123 mL/min/kg.

`COc1ccc(F)c(CN2CCC(Cc3noc(C)n3)CC2)c1`: the MDR1-MDCK efflux ratio is 0.656; the intrinsic clearance, human liver microsomes was 20.2 mL/min/kg; the intrinsic clearance, rat liver microsomes worked out at 263 mL/min/kg; the aqueous solubility came out at 69.4 µg/mL (≈ 217 µM).

With `O=C(CCN1CCN(C(=O)OCc2cc(Cl)cc(Cl)c2)CC1)c1ccc2[nH]c(=O)oc2c1`, the intrinsic clearance, human liver microsomes is 147 mL/min/kg; the intrinsic clearance, rat liver microsomes is 513 mL/min/kg; the aqueous solubility stood at 4.4 µg/mL (≈ 9.2 µM).

Regarding `COc1ccc(NC(=O)CN2CCCC2)cc1`, the intrinsic clearance, human liver microsomes was ≤ 4.74 mL/min/kg and the intrinsic clearance, rat liver microsomes was 1850 mL/min/kg.

Turning to `Cc1ccc(-c2nc(-c3ccncc3)n[nH]2)cc1`, the intrinsic clearance, human liver microsomes was 26.9 mL/min/kg; the intrinsic clearance, rat liver microsomes was 269 mL/min/kg; the aqueous solubility was 20 µg/mL (≈ 84.7 µM).

Take `CN1CCC(CNc2nccc3cccnc23)CC1`: the MDR1-MDCK efflux ratio was 0.854; the intrinsic clearance, human liver microsomes is ≤ 4.74 mL/min/kg; the intrinsic clearance, rat liver microsomes was determined as 1520 mL/min/kg.

Turning to `COc1ccc(C(=O)c2ccc(Cl)cc2)c(OC)c1`, the MDR1-MDCK efflux ratio turned out to be 0.522; the intrinsic clearance, human liver microsomes worked out at 87.4 mL/min/kg; the intrinsic clearance, rat liver microsomes was found to be 1750 mL/min/kg.

Consider `CCNC(=O)N1CCC2(CCc3ccccc3O2)CC1`, for which the MDR1-MDCK efflux ratio amounted to 0.737; the intrinsic clearance, human liver microsomes worked out at 6.22 mL/min/kg; the intrinsic clearance, rat liver microsomes is 884 mL/min/kg; the aqueous solubility came to 66.7 µg/mL (≈ 243 µM).

As to `CC(=O)N1CCCN(C(=O)Cc2csc(C(C)C)n2)CC1`, the MDR1-MDCK efflux ratio was 20.4; the intrinsic clearance, human liver microsomes is ≤ 4.74 mL/min/kg; the intrinsic clearance, rat liver microsomes is 33.4 mL/min/kg; the aqueous solubility is 55.1 µg/mL (≈ 178 µM).

With `COc1ccc(NC(=O)C(C)N2CCCN(c3ccc(C(F)(F)F)cn3)CC2)cc1` (stereo unspecified), the MDR1-MDCK efflux ratio stood at 0.969; the intrinsic clearance, human liver microsomes came to 391 mL/min/kg; the intrinsic clearance, rat liver microsomes is 1930 mL/min/kg; the aqueous solubility amounted to 19.1 µg/mL (≈ 45.1 µM).

The compound `CNc1nc(N2CCCCC2)nc(N2CCCCC2)n1` came in with an intrinsic clearance, human liver microsomes of 54.7 mL/min/kg; an intrinsic clearance, rat liver microsomes of 801 mL/min/kg; an aqueous solubility of 27 µg/mL (≈ 97.5 µM).

Take `CN(C)CCOc1cc(-c2cn[nH]c2)ccc1NC(=O)C1COc2ccccc2O1` (stereo unspecified): the MDR1-MDCK efflux ratio was determined as 32.1; the intrinsic clearance, human liver microsomes came out at 19.9 mL/min/kg; the intrinsic clearance, rat liver microsomes was determined as 691 mL/min/kg.

With `N#Cc1ccc(OC2CCNCC2)cc1`, the intrinsic clearance, human liver microsomes is ≤ 4.74 mL/min/kg and the intrinsic clearance, rat liver microsomes was ≤ 10.7 mL/min/kg.

As for `Fc1cc(CCNc2ncnc3sccc23)c2c(c1)COCO2`, the intrinsic clearance, human liver microsomes was 218 mL/min/kg and the intrinsic clearance, rat liver microsomes worked out at 2800 mL/min/kg.

For `O=C(O)c1cc(/C=C/c2csnn2)nc2ccccc12`, the MDR1-MDCK efflux ratio was determined as 2.08; the intrinsic clearance, human liver microsomes is ≤ 4.74 mL/min/kg; the intrinsic clearance, rat liver microsomes is ≤ 10.7 mL/min/kg; the aqueous solubility was found to be 15.7 µg/mL (≈ 55.4 µM).

In the case of `CC(C)Oc1ccc(C(=O)Nc2cccc(-c3nc4cnccc4o3)c2)cc1`, the aqueous solubility was determined as 0.54 µg/mL (≈ 1.45 µM).

Consider `CCOc1ccc(-c2ccccc2NC(=O)COC)cc1`, for which the MDR1-MDCK efflux ratio was determined as 0.401; the intrinsic clearance, human liver microsomes came out at 398 mL/min/kg; the intrinsic clearance, rat liver microsomes is 4200 mL/min/kg; the aqueous solubility was found to be 37.3 µg/mL (≈ 131 µM).
